Measured values as given in PubChem BioAssay (NCI).
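Where inhibition never reached the appropriate level, the endpoint shown equals the highest concentration tested. Otherwise, values were interpolated linearly from a five-concentration, 48-hour dose response in 96-well plates. TGI denotes the concentration required for complete inhibition of growth.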

What was measured:
Experiment in all cases: growth of human tumour cells (NCI), 48 h
OVCAR-8 ovarian = tested on: OVCAR-8 ovarian
OVCAR-3 ovarian = tested on: OVCAR-3 ovarian
HOP-92 NSCLC = tested on: HOP-92 NSCLC
NCI-H460 lung = tested on: NCI-H460 lung
MDA-N = tested on: MDA-N
SK-MEL-2 melanoma = tested on: SK-MEL-2 melanoma
UO-31 renal = tested on: UO-31 renal
HT29 colon = tested on: HT29 colon
DU-145 prostate = tested on: DU-145 prostate
SF-268 CNS = tested on: SF-268 CNS
HCT-116 colon = tested on: HCT-116 colon
SN12C renal = tested on: SN12C renal
NCI-H226 lung = tested on: NCI-H226 lung
K-562 leukemia = tested on: K-562 leukemia
EKVX NSCLC = tested on: EKVX NSCLC
ACHN renal = tested on: ACHN renal
NCI-H522 lung = tested on: NCI-H522 lung
MDA-MB-231 breast = tested on: MDA-MB-231 breast
BT-549 breast = tested on: BT-549 breast
CAKI-1 renal = tested on: CAKI-1 renal
MCF7 breast = tested on: MCF7 breast
SNB-75 CNS = tested on: SNB-75 CNS
SR leukemia = tested on: SR leukemia
SNB-19 CNS = tested on: SNB-19 CNS
NCI/ADR-RES ovarian = tested on: NCI/ADR-RES ovarian
SW-620 colon = tested on: SW-620 colon
SF-295 CNS = tested on: SF-295 CNS
TK-10 renal = tested on: TK-10 renal
HL-60(TB) leukemia = tested on: HL-60(TB) leukemia
M14 melanoma = tested on: M14 melanoma
RPMI-8226 leukemia = tested on: RPMI-8226 leukemia
HCC-2998 colon = tested on: HCC-2998 colon
OVCAR-5 ovarian = tested on: OVCAR-5 ovarian
A549 NSCLC = tested on: A549 NSCLC
NCI-H23 lung = tested on: NCI-H23 lung
MOLT-4 leukemia = tested on: MOLT-4 leukemia
UACC-62 melanoma = tested on: UACC-62 melanoma
UACC-257 melanoma = tested on: UACC-257 melanoma
SK-OV-3 ovarian = tested on: SK-OV-3 ovarian
IGROV1 ovarian = tested on: IGROV1 ovarian
MDA-MB-435 = tested on: MDA-MB-435
SK-MEL-28 melanoma = tested on: SK-MEL-28 melanoma
SF-539 CNS = tested on: SF-539 CNS
PC-3 prostate = tested on: PC-3 prostate
OVCAR-4 ovarian = tested on: OVCAR-4 ovarian
HS 578T breast = tested on: HS 578T breast
LOX IMVI melanoma = tested on: LOX IMVI melanoma
CCRF-CEM leukemia = tested on: CCRF-CEM leukemia
HCT-15 colon = tested on: HCT-15 colon
MALME-3M melanoma = tested on: MALME-3M melanoma
COLO 205 colon = tested on: COLO 205 colon
HOP-62 NSCLC = tested on: HOP-62 NSCLC
U251 CNS = tested on: U251 CNS
786-0 renal = tested on: 786-0 renal
SK-MEL-5 melanoma = tested on: SK-MEL-5 melanoma
KM12 colon = tested on: KM12 colon
A498 renal = tested on: A498 renal

## C=C1C[C@]23CC[C@@H]4C(CO)(CO)CC(=O)C[C@]4(C)[C@@H]2CC[C@H]1C3
OVCAR-8 ovarian
  TGI: > 100 µM
OVCAR-3 ovarian
  TGI: > 100 µM
HOP-92 NSCLC
  TGI: > 100 µM
NCI-H460 lung
  TGI: > 100 µM
MDA-N
  TGI: > 100 µM
SK-MEL-2 melanoma
  TGI: > 100 µM
UO-31 renal
  TGI: > 100 µM
HT29 colon
  TGI: > 100 µM
DU-145 prostate
  TGI: > 100 µM
SF-268 CNS
  TGI: > 100 µM
HCT-116 colon
  TGI: > 100 µM
SN12C renal
  TGI: > 100 µM
NCI-H226 lung
  TGI: > 100 µM
K-562 leukemia
  TGI: > 100 µM
EKVX NSCLC
  TGI: > 100 µM
ACHN renal
  TGI: > 100 µM
NCI-H522 lung
  TGI: > 100 µM
MDA-MB-231 breast
  TGI: > 100 µM
BT-549 breast
  TGI: > 100 µM
CAKI-1 renal
  TGI: > 100 µM
MCF7 breast
  TGI: > 100 µM
SNB-75 CNS
  TGI: > 100 µM
SR leukemia
  TGI: > 100 µM
SNB-19 CNS
  TGI: 35.9 µM
NCI/ADR-RES ovarian
  TGI: > 100 µM
SW-620 colon
  TGI: > 100 µM
SF-295 CNS
  TGI: > 100 µM
TK-10 renal
  TGI: > 100 µM
HL-60(TB) leukemia
  TGI: > 100 µM
M14 melanoma
  TGI: > 100 µM
RPMI-8226 leukemia
  TGI: > 100 µM
HCC-2998 colon
  TGI: > 100 µM
OVCAR-5 ovarian
  TGI: > 100 µM
A549 NSCLC
  TGI: > 100 µM
NCI-H23 lung
  TGI: > 100 µM
MOLT-4 leukemia
  TGI: > 100 µM
UACC-62 melanoma
  TGI: > 100 µM
UACC-257 melanoma
  TGI: > 100 µM
SK-OV-3 ovarian
  TGI: > 100 µM
IGROV1 ovarian
  TGI: > 100 µM
MDA-MB-435
  TGI: > 100 µM
SK-MEL-28 melanoma
  TGI: > 100 µM
SF-539 CNS
  TGI: > 100 µM
PC-3 prostate
  TGI: > 100 µM
OVCAR-4 ovarian
  TGI: > 100 µM
HS 578T breast
  TGI: > 100 µM
LOX IMVI melanoma
  TGI: > 100 µM
CCRF-CEM leukemia
  TGI: > 100 µM
HCT-15 colon
  TGI: > 100 µM
MALME-3M melanoma
  TGI: > 100 µM
COLO 205 colon
  TGI: > 100 µM
HOP-62 NSCLC
  TGI: > 100 µM
U251 CNS
  TGI: > 100 µM
786-0 renal
  TGI: > 100 µM

## COc1cccc(NC(=O)CC(=O)Nc2cccc(OC)c2)c1
OVCAR-8 ovarian
  TGI: > 100 µM
OVCAR-3 ovarian
  TGI: > 100 µM
HOP-92 NSCLC
  TGI: > 100 µM
NCI-H460 lung
  TGI: > 100 µM
MDA-N
  TGI: > 100 µM
SK-MEL-5 melanoma
  TGI: > 100 µM
SK-MEL-2 melanoma
  TGI: > 100 µM
UO-31 renal
  TGI: > 100 µM
HT29 colon
  TGI: > 100 µM
DU-145 prostate
  TGI: > 100 µM
SF-268 CNS
  TGI: > 100 µM
HCT-116 colon
  TGI: > 100 µM
SN12C renal
  TGI: > 100 µM
NCI-H226 lung
  TGI: > 100 µM
K-562 leukemia
  TGI: > 100 µM
EKVX NSCLC
  TGI: > 100 µM
ACHN renal
  TGI: > 100 µM
NCI-H522 lung
  TGI: > 100 µM
MDA-MB-231 breast
  TGI: > 100 µM
BT-549 breast
  TGI: > 100 µM
CAKI-1 renal
  TGI: > 100 µM
MCF7 breast
  TGI: > 100 µM
SR leukemia
  TGI: > 100 µM
SNB-19 CNS
  TGI: > 100 µM
NCI/ADR-RES ovarian
  TGI: > 100 µM
SW-620 colon
  TGI: > 100 µM
SF-295 CNS
  TGI: > 100 µM
TK-10 renal
  TGI: > 100 µM
HL-60(TB) leukemia
  TGI: > 100 µM
M14 melanoma
  TGI: > 100 µM
RPMI-8226 leukemia
  TGI: > 100 µM
HCC-2998 colon
  TGI: > 100 µM
A549 NSCLC
  TGI: > 100 µM
NCI-H23 lung
  TGI: > 100 µM
MOLT-4 leukemia
  TGI: > 100 µM
KM12 colon
  TGI: > 100 µM
UACC-62 melanoma
  TGI: > 100 µM
UACC-257 melanoma
  TGI: > 100 µM
SK-OV-3 ovarian
  TGI: > 100 µM
IGROV1 ovarian
  TGI: > 100 µM
MDA-MB-435
  TGI: > 100 µM
SK-MEL-28 melanoma
  TGI: > 100 µM
SF-539 CNS
  TGI: > 100 µM
PC-3 prostate
  TGI: > 100 µM
OVCAR-4 ovarian
  TGI: > 100 µM
A498 renal
  TGI: > 100 µM
HS 578T breast
  TGI: > 100 µM
LOX IMVI melanoma
  TGI: > 100 µM
CCRF-CEM leukemia
  TGI: > 100 µM
HCT-15 colon
  TGI: > 100 µM
MALME-3M melanoma
  TGI: > 100 µM
COLO 205 colon
  TGI: > 100 µM
HOP-62 NSCLC
  TGI: > 100 µM
U251 CNS
  TGI: > 100 µM
786-0 renal
  TGI: > 100 µM
